Reference: paper PMC6273168, “Synthesis and Biological Evaluation of Novel 4-Morpholino-7,8-dihydro-5H-thiopyrano[4,3-d]pyrimidine Derivatives Bearing Phenylpyridine/ Phenylpyrimidine-Carboxamides” (Molecules, 2016)

Assays:
[1] = system: A549 (human lung cancer) cell line; experiment: MTT cell proliferation (cytotoxicity) assay, A549; assay type: cell-based; settings: average of two separate determinations
Protocol: (§1) Taking GDC-0941 as reference compound, the target compounds […], 12a–j, 13a–g and 14a–g ere evaluated for the cytotoxicity against the three cancer cell lines A549, PC-3 and MCF-7 usg 3-(4,5-dimethylthiazolyl-2)-2,5-diphenyltetrazolium bromide (MTT) cell proliferation assays. In addition, one selected compounds 12h was fher evaluated for PI3Kα kinase inhibitory activity. The results, expressed as IC50 values or inhibitory rate, are sumrized in Table 1, Table 2 and Table 3.
(§2) The in vitro cytotoxic activities of all the compounds 11a–11j, 12a–12j, 13a–13g and 14a–14g was evaluated with A549, PC-3 and MCF-7 cell lines by the standard MTT assay, with GDC-0941 as positive control. The cancer cell lines were cultured in minimum essential medium (MEM) supplement with 10% fetal bovine serum (FBS). Approximately 4 × 10^3 cells, suspended in MEM medium, were plated onto each well of a 96-well plate and incubated in 5% CO2 at 37 °C for 24 h. The test compounds at indicated final concentrations were added to the culture medium and the cell cultures were continued for 72 h. Fresh MTT was added to each well at a terminal concentration of […] and incubated with cells at 37 °C for 4 h. The formazan crystals were dissolved in 100 µL DMSO each well, and the absorbency at 492 nm (for absorbance of MTT formazan) and 630 nm (for the reference wavelength) was measured with an ELISA reader. All of the compounds were tested three times in each of the cell lines. The results expressed as inhibition rates or IC50 (half-maximal inhibitory concentration) were the averages of two determinations and calculated by using the Bacus Laboratories Inc. Slide Scanner (Bliss) software (the Bacus Laboratories Inc. Slide Scanner (BLISS) system, Lombard, IL, USA).

[2] = system: PC-3 (human prostatic cancer) cell line; experiment: MTT cell proliferation (cytotoxicity) assay, PC-3; assay type: cell-based; settings: 72 h, average of two separate determinations
Protocol: as §1, §2

[3] = system: MCF-7 (human breast cancer) cell line; experiment: MTT cell proliferation (cytotoxicity) assay, MCF-7; assay type: cell-based; settings: average of two separate determinations
Protocol: as §1, §2

[4] = Homo sapiens, A549, 72 h, Table 1
[5] = Homo sapiens, MCF7, 72 h, Table 1
[6] = Homo sapiens, A549, 72 h, Table 2
[7] = Homo sapiens, MCF7, 72 h, Table 2

## O=C(Nc1ccc(-c2nc3c(c(N4CCOCC4)n2)CSCC3)cc1)c1cc(-c2ccc(F)cc2)ccn1 [Compound 11f, N-(4-(4-Morpholino-7,8-dihydro-5H-thiopyrano[4,3-d]pyrimidin-2-yl)phenyl)-4-(4-fluorophenyl)pyridine amide]
other
  melting point: 248.1 to 249.6 °C

## O=C(Nc1ccc(-c2nc3c(c(N4CCOCC4)n2)CS(=O)(=O)CC3)cc1)c1cc(-c2ccc(F)cc2)ccn1 [Compound 12f, N-(4-(4-Morpholino-7,8-dihydro-6,6-dioxide-5H-thiopyrano[4,3-d]pyrimidin-2-yl)phenyl)-4-(4-fluoro-phenyl) pyridincarboxamide]
other
  melting point: > 300 °C

## O=C(Nc1ccc(-c2nc3c(c(N4CCOCC4)n2)CS(=O)(=O)CC3)cc1)c1cc(-c2cccc(F)c2)ccn1 [Compound 12b, N-(4-(4-Morpholino-7,8-dihydro-6,6-dioxide-5H-thiopyrano[4,3-d]pyrimidin-2-yl)phenyl)-4-(3-fluoro-phenyl) pyridinecarboxamide]
other
  melting point: 281.5 to 283.8 °C

## COc1ccc(-c2ccnc(C(=O)Nc3ccc(-c4nc5c(c(N6CCOCC6)n4)CS(=O)(=O)CC5)cc3)c2)cc1 [Compound 12i, N-(4-(4-Morpholino-7,8-dihydro-6,6-dioxide-5H-thiopyrano[4,3-d]pyrimidin-2-yl)phenyl)-4-(4-methoxy-phenyl) pyridinecarboxamide]
other
  melting point: 289 to 292.1 °C

## N-(4-(4-Morpholino-7,8-dihydro-5H-thiopyrano[4,3-d]pyrimidin-2-yl)phenyl)-6-phenylpyridine-4-carboxamide [Compound 13g]
[1]; 72 h, Table 2
  IC50: > 100 µM
[2]; Table 2
  IC50: > 100 µM
[3]; 72 h, Table 2
  IC50: > 100 µM

## O=C(Nc1ccc(-c2nc3c(c(N4CCOCC4)n2)CSCC3)cc1)c1cc(-c2ccc(Cl)cc2)ccn1 [Compound 11e, N-(4-(4-Morpholino-7,8-dihydro-5H-thiopyrano[4,3-d]pyrimidin-2-yl)phenyl)-4-(4-chlorophenyl)pyridine amide]
[1]; [4]
  IC50: 19.3 ± 0.86 µM
[2]; Homo sapiens, Table 1
  IC50: 23.2 ± 0.76 µM
[3]; [5]
  IC50: 20.9 ± 1.02 µM
other
  melting point: 235.3 to 236.2 °C

## Cc1ccc(-c2ccnc(C(=O)Nc3ccc(-c4nc5c(c(N6CCOCC6)n4)CSCC5)cc3)c2)cc1 [Compound 11g, N-(4-(4-Morpholino-7,8-dihydro-5H-thiopyrano[4,3-d]pyrimidin-2-yl)phenyl)-4-(4-methylphenyl) picolinamide]
other
  melting point: 275 to 276.8 °C

## O=C(Nc1ccc(-c2nc3c(c(N4CCOCC4)n2)CSCC3)cc1)c1cc(-c2ccc(Br)cc2)ncn1 [Compound 13e]
[1]; [6]
  IC50: > 100 µM
[2]; Homo sapiens, Table 2
  IC50: > 100 µM
[3]; [7]
  IC50: > 100 µM
other
  melting point: 251.8 to 255 °C

## O=C(Nc1ccc(-c2nc3c(c(N4CCOCC4)n2)CS(=O)(=O)CC3)cc1)c1cc(-c2ccc(C(F)(F)F)cc2)ncn1 [Compound 14c]
[1]; [6]
  IC50: > 100 µM
[2]; Homo sapiens, Table 2
  IC50: > 100 µM
[3]; [7]
  IC50: > 100 µM
other
  melting point: 287.1 to 289.2 °C

## O=C(Nc1ccc(-c2nc3c(c(N4CCOCC4)n2)CSCC3)cc1)c1cc(-c2cccc(F)c2)ccn1 [Compound 11b, N-(4-(4-Morpholino-7,8-dihydro-5H-thiopyrano[4,3-d]pyrimidin-2-yl)phenyl)-4-(3-fluorophenyl)pyridine amide]
[1]; [4]
  IC50: 48.08 ± 0.13 µM
[2]; Homo sapiens, Table 1
  IC50: 60.3 ± 1.24 µM
[3]; [5]
  IC50: 51.7 ± 1.56 µM
other
  melting point: 236.5 to 238.4 °C

## O=C(Nc1ccc(-c2nc3c(c(N4CCOCC4)n2)CSCC3)cc1)c1cc(-c2ccc(F)cc2)ncn1 [Compound 13d]
[1]; [6]
  IC50: > 100 µM
[2]; Homo sapiens, Table 2
  IC50: > 100 µM
[3]; [7]
  IC50: > 100 µM
other
  melting point: 237 to 239.3 °C

## O=C(Nc1ccc(-c2nc3c(c(N4CCOCC4)n2)CSCC3)cc1)c1cc(-c2ccc(C(F)(F)F)cc2)ncn1 [Compound 13c]
[1]; [6]
  IC50: > 100 µM
[2]; Homo sapiens, Table 2
  IC50: > 100 µM
[3]; [7]
  IC50: > 100 µM
other
  melting point: 244.2 to 245.8 °C

## CS(=O)(=O)N1CCN(Cc2cc3nc(-c4cccc5[nH]ncc45)nc(N4CCOCC4)c3s2)CC1 [GDC-0941, reference compound]
[1]; [4]
  IC50: 6.99 ± 0.21 µM
[2]; Homo sapiens, Table 1
  IC50: 0.2 ± 0.08 µM
[3]; [5]
  IC50: 0.07 ± 0.03 µM

## O=C(Nc1ccc(-c2nc3c(c(N4CCOCC4)n2)CS(=O)(=O)CC3)cc1)c1cc(-c2ccc(C(F)(F)F)cc2)ccn1 [Compound 12d, N-(4-(4-Morpholino-7,8-dihydro-6,6-dioxide-5H-thiopyrano[4,3-d]pyrimidin-2-yl)phenyl)-4-(4-trifluoro-methylphenyl) pyridinecarboxamide]
other
  melting point: > 300 °C

## O=C(Nc1ccc(-c2nc3c(c(N4CCOCC4)n2)CS(=O)(=O)CC3)cc1)c1cc(-c2ccccc2)ccn1 [Compound 12a, N-(4-(4-Morpholino-7,8-dihydro-6,6-dioxide-5H-thiopyrano[4,3-d]pyrimidin-2-yl)phenyl)-4-phenylpyridine Amide]
[2]; Homo sapiens, Table 1
  IC50: 74.27 ± 0.08 µM
other
  melting point: 229 to 233.8 °C

## O=C(Nc1ccc(-c2nc3c(c(N4CCOCC4)n2)CS(=O)(=O)CC3)cc1)c1cc(-c2ccc(F)cc2)ncn1 [Compound 14d]
[1]; [6]
  IC50: > 100 µM
[2]; Homo sapiens, Table 2
  IC50: > 100 µM
[3]; [7]
  IC50: > 100 µM
other
  melting point: > 300 °C

## O=C(Nc1ccc(-c2nc3c(c(N4CCOCC4)n2)CS(=O)(=O)CC3)cc1)c1cc(-c2ccc(Cl)cc2)ncn1 [Compound 14f]
[1]; [6]
  IC50: > 100 µM
[2]; Homo sapiens, Table 2
  IC50: > 100 µM
[3]; [7]
  IC50: > 100 µM
other
  melting point: > 300 °C

## O=C(Nc1ccc(-c2nc3c(c(N4CCOCC4)n2)CSCC3)cc1)c1cc(-c2ccc(F)cc2F)ccn1 [Compound 11c, N-(4-(4-Morpholino-7,8-dihydro-5H-thiopyrano[4,3-d]pyrimidin-2-yl)phenyl)-4-(2,4-difluorophenyl) picolinamide]
other
  melting point: 235 to 236.7 °C

## O=C(Nc1ccc(-c2nc3c(c(N4CCOCC4)n2)CS(=O)(=O)CC3)cc1)c1cc(-c2ccc(F)cc2F)ccn1 [Compound 12c, N-(4-(4-Morpholino-7,8-dihydro-6,6-dioxide-5H-thiopyrano[4,3-d]pyrimidin-2-yl)phenyl)-4-(2,4-difluorophenyl) picolinamide]
other
  melting point: 269 to 272.6 °C

## O=C(Nc1ccc(-c2nc3c(c(N4CCOCC4)n2)CSCC3)cc1)c1cc(-c2ccc(C(F)(F)F)cc2)ccn1 [Compound 11d, N-(4-(4-Morpholino-7,8-dihydro-5H-thiopyrano[4,3-d]pyrimidin-2-yl)phenyl)-4-(4-trifluoromethylphenyl) picolinamide]
[1]; [4]
  IC50: 43.46 ± 0.12 µM
[3]; [5]
  IC50: 50.3 ± 2.18 µM
other
  melting point: 229.3 to 231.7 °C

## O=C(Nc1ccc(-c2nc3c(c(N4CCOCC4)n2)CS(=O)(=O)CC3)cc1)c1cc(-c2ccc(Cl)cc2)ccn1 [Compound 12e, N-(4-(4-Morpholino-7,8-dihydro-6,6-dioxide-5H-thiopyrano[4,3-d]pyrimidin-2-yl)phenyl)-4-(4-chloro-phenyl) pyridinecarboxamide]
other
  melting point: 266.8 to 268.8 °C

## CCc1ccc(-c2ccnc(C(=O)Nc3ccc(-c4nc5c(c(N6CCOCC6)n4)CSCC5)cc3)c2)cc1 [Compound 11h, N-(4-(4-Morpholino-7,8-dihydro-5H-thiopyrano[4,3-d]pyrimidin-2-yl)phenyl)-4-(4-ethylphenyl) picolinamide]
other
  melting point: 229.8 to 232.1 °C

## N-(4-(4-Morpholino-7,8-dihydro-5H-thiopyrano[4,3-d]pyrimidin-2-yl)phenyl)-6-(p-tolyl)pyrimidine-4-formamide [Compound 13a]
[1]; 72 h, Table 2
  IC50: > 100 µM
[2]; Table 2
  IC50: > 100 µM
[3]; 72 h, Table 2
  IC50: > 100 µM
